In patent US11331364B2, “Use for JNK inhibitor molecules for treatment of various diseases” (Xigen Inflammation Ltd., priority 2014, dated 2022):
Square brackets hold non-standard residues; d marks the D form. Peptide text beside a SMILES is read from it.

What was measured:
[1] = system: human whole blood; test: LPS-induced IL-6 release in human whole blood; type: cell-based; conditions: 1, 3, 10 μM 1 h before LPS (0.02 ng/mL), 4 hours
Method: FIG. 18 JNK inhibition and IL-6 release in human whole blood. The JNK inhibitor with SEQ ID NO: 172 was added at three different concentrations, namely 1, 3 and 10 μM 1 h before whole blood stimulation with LPS (0.02 ng/mL) for 4 hours.
Whole blood is collected from anesthetized rat or human healthy volunteers using a venipuncture connected to a pre-labeled vacuum tube containing sodium citrate. Tubes are gently mixed by inversion 7-8 times; and are then kept at RT until stimulation. JNK inhibitor of SEQ ID NO: 172 is prepared 6 times concentrated in PBS, and 30 μl/well of mix is added into 96-well plate. Whole blood is diluted by 1:2 in PBS and 120 μl of diluted blood is added in each well where either PBS alone or JNK inhibitor of SEQ ID NO: 172 has been previously added. Whole blood is incubated at 37° C.; 85 rpm (Stuart Orbital incubator SI500) for 60 min. Activators (LPS) are the prepared, 30 μl/well of LPS, 6 times concentrated. After 60 min incubation, LPS is added to the blood, blood is mixed by pipetting up and down, and then kept for 4 h under agitation (85 rpm), at 37° C. […] Cytokine (IL-6, IL-2, IFNγ and TNFα) were then measured using standard Elisa kits (e.g. from R&D Systems: DuoSet Elisas; or from BD Biosciences: BD Opteia Set Elisa). Results are expressed as pg/ml of supernatant of the measured cytokine.

[2] = system: experimental renal ischemia/reperfusion in rats; test: Renal ischemia/reperfusion (clamping both renal pedicles 40 min), Wistar rats; type: in vivo, rat; conditions: 2 mg/kg IV one hour after clamping; 24 h following ischemia
Method: Renal ischemia will be induced by clamping both renal pedicles with atraumatic clamp (induction of necropathy). One unique dose of the JNK inhibitor of SEQ ID NO: 172 (2000 μg/kg) will be administered intravenously (IV) into the tail vein on Day 0, one hour after clamping period (after reperfusion) both renal pedicles with atraumatic clamp. The administration volume will be 2 ml/kg. Heparin (5000 IU/kg) will be administered intraperitoneally 1 hour before clamping.
Each day, the general behavior and the appearance of all animals is observed. […] For the evaluation of the renal function, serum creatinine ([…]) or urea concentrations (mmol/mL) are measured with the appropriate kits (Bayer Healthcare AG, Leverkusen, Germany). […]
Twenty-six (26) male Wistar rats (age 5-6 weeks) were used in this study (divided into 2 groups of 10 rats and 1 group of 6 rats). […] The health of the animals was monitored (moribund animals, abnormal important loss of weight, major intolerance of the substance, etc. . . . ). […]
For evaluation of renal function, blood was collected from the tail vein at 24 hours after reperfusion. Serum creatinine ([…]) and urea concentrations (mmol/mL) were measured using appropriate kits (Bayer Healthcare AG, Leverkusen, Germany). […]

[3] = system: PKR−/− neurons; test: Neuronal apoptosis after Aβ42 stress in PKR−/− primary cortical neurons; type: cell-based, mouse
Method: To obtain primary cortical neuronal cultures, E15.5 mice embryos were dissected in PBS (Phosphate Buffered Saline) 6% glucose, on ice. Embryos cortices were minced into small pieces and treated with PBS glucose trypsin (Sigma Aldrich, Saint-Louis, USA) for 20 min at 37° C. Dissociated cortical cells were cultured in Neurobasal media complemented with B27, Glutamax and penicillin-streptomycin (Gibco). Neurons were cultured at 37° C., 5% CO2 on pre-coated with poly-L-lysin (Sigma Aldrich) petri dishes. Neurons were cultured to maturity (7 days) before use.
To induce […] stress 2 μM of Aβ1-42 (Thermo Fisher Scientific, Mass., USA) were used during 5 h on cortical neurons. Aβ42-1 inversed peptide (Thermo Fisher Scientific) was used as negative control. AP 1-42 and Aβ42-1 were dissolved in pure water and incubated at 37° C. for 48 h before use.
To inhibit JNK, cortical neurons were pre-treated with 10 μM of XG-104 1 h before cell-stress treatment.
For immunoblot analysis cells were lysed on ice in a lysis buffer containing […] NaPi pH 7.8, […] NaCl, 1% Triton, 0.5% DOC, 0.1% SDS, 10% glycerol, 0.1 μM calyculin A, 1 mM Na3VO4 and 1× of a protease inhibitor cocktail (Sigma Aldrich). Lysates were sonicated and centrifugated 10 min at 15000 g at 4° C. The supernatant protein concentration was determined with the Micro BCA protein assay kit (Thermo Scientific). Thirty micrograms of proteins were resolved on SDS-PAGE and transferred onto nitrocellulose membrane. After blocking with TBS 5% skim milk, the membranes were probed with primary antibodies to JNK full, c-Jun, PKR, eIF2α (Santa Cruz, Danvers, USA), pJNK (Millipore, Billerica, USA), phosphor eIF2a (Thermo Fisher Scientific), PARP and tubulin (Cell Signaling, Danvers, USA). IR Dyes 800 and 700 (Rockland Immunochemical Inc, Gilbertsville, USA) antibodies were used as secondary antibodies. Blots were reveled with Odyssey imaging system (LI-COR Biosciences, Lincoln, USA).
For caspase 3 activity analysis culture cell supernatants containing degenerating and dead neurons, and cell medium were collected in parallel of adhesive neurons lysis. Culture cell supernatants were centrifugated 10 min at 15000 g at 4° C. Pellets were then resuspended in lysis buffer and caspase 3 activity was measured by using the Caspase 3 Assay kit reagents and protocol (Abcam, Cambridge, UK).

[4] = PKR−/− neurons, 10 μM, vs Aβ42 treated PKR−/− neurons
[5] = dual inhibition of PKR and JNK, vs treated WT neurons

SMILES: CC(C)C[C@H](NC(=O)[C@H](CC(N)=O)NC(=O)[C@H](CC(C)C)NC(=O)[C@@H](NC(=O)[C@@H](C)NC(=O)[C@@H]1CCCN1C(=O)[C@H](CCCNC(=N)N)NC(=O)[C@@H](CCCCN)NC(=O)[C@@H]1CCCN1C(=O)[C@H](CCCNC(=N)N)NC(=O)[C@@H](CCCNC(=N)N)NC(=O)[C@H](CCCNC(=N)N)NC(=O)[C@H](CCCNC(=N)N)NC(=O)[C@H](CCC(N)=O)NC(=O)[C@@H](CCCNC(=N)N)NC(=O)[C@H](CCCNC(=N)N)NC(=O)[C@H](CCCCN)NC(=O)[C@H](CCCCN)NC(=O)[C@H](N)CCCNC(=N)N)[C@@H](C)O)C(=O)N[C@H](Cc1ccccc1)C(N)=O [SEQ ID NO: 172, rKKRrQRRrRPkRPaTLNLf] (H-[dR]KKR[dR]QRR[dR]RP[dK]RP[dA]TLNL[dF]-NH2; N-terminus assumed)
- LPS-induced IL-6 release [1]: did reduce the LPS-induced IL-6 release in a dose-dependent manner
- serum creatinine relative to untreated ischemic rats [2]: lower serum creatinine
- urea relative to untreated ischemic rats [2]: lower urea
- decrease of caspase 3 activity [3, 4]: 61%
- decrease of cleaved PARP expression level [3, 4]: 86%
- decrease of cleaved caspase 3 expression level [3, 4]: 42%
- decrease of PARP expression levels [3, 5]: 93%
- decrease of caspase 3 activity [3, 5]: 87%
- decrease of cleaved caspase 3 [3, 5]: 83%
